Experimental data published in PMC8961551, “Potential Anticancer Agents against Melanoma Cells Based on an As-Synthesized Thiosemicarbazide Derivative” (Biomolecules, 2022).

Tests used:
[1] = RP-TLC lipophilicity; format: physicochemical; settings: for RMW (chromatographic lipophilicity parameter): RP-18 plates, methanol-water 65-95%, extrapolated to 0% methanol; for -S TLC (slope of linear equation): Table S3
Protocol: RP-TLC analysis was performed using RP-18 TLC silica gel 60 F254 plates (10 × 20 cm, Merck, Darmstadt, Germany) with a DS-II chromatographic horizontal chamber (CHROMDES, Lublin, Poland). The mobile phase consisted of methanol (POCH, Gliwice, Poland) and water with the following concentrations of methanol: 65–95% (%, v/v), with a concentration change every 5%. After drying, the spots were observed under a UV lamp with a wavelength of 254 nm.

[2] = system: dihydroorotate dehydrogenase (DHODH); assay: qRT-PCR relative mRNA expression, DHODH; format: cell-based, human; settings: G-361, 48 h incubation, RQ = 2^-ΔΔCt, mean ± SD, control 1.000
Protocol: (§1) […] cell line was seeded into 6-well plates in the concentration of 4 × 10^5 cells/well. Thiosemicarbazide derivatives were added when 70–80% of confluence was achieved. After 48 h of incubation, 1 mL of TRIzol™ Reagent (Invitrogen, Carlsbad, CA, USA) was added to lyse the cells. Lysates were centrifuged for 5 min at 12,000× g at 4 °C, and clear supernatants were processed according to the manufacturer’s protocol. Then, reverse transcription was performed using NG dART RT-PCR kit (EURx, Gdańsk, Poland) and a Mastercycler gradient thermocycler (Eppendorf, Hamburg, Germany). Thermal profile of the reaction: 10 min at 25 °C, then 50 min at 50 °C, and 5 min at 85 °C. mRNA levels of the genes DHODH, 18SRNA, and BACT were assessed using TaqMan Fast Advanced Master Mix (ThermoFisher, Waltham, MA, USA). mRNA levels of the following genes: CAT, SOD2,18SRNA TBP were assessed using PowerUp SYBR Green Master Mix (ThermoFisher, Waltham, MA, USA) in a 7500 Fast Real-Time PCR System (ThermoFisher, Waltham, MA, USA). Thermal profile of the reactions performed: 20 s at 95 °C, followed by 40 cycles of 3 s at 95 °C and 30 s at 60 °C. The reaction was carried out in triplicates. Relative expression of the tested genes was determined by qRT-PCR and the ΔΔCt method. The statistical analysis was performed with RQ values (relative quantification, RQ = 2^−∆ΔCt).

[3] = system: superoxide dismutase (SOD2); assay: qRT-PCR relative mRNA expression, SOD2; format: cell-based, human; settings: G-361, 48 h incubation, RQ = 2^-ΔΔCt, mean ± SD, control 1.001
Protocol: as §1

[4] = system: melanoma line G-361; assay: Intracellular thiol / reduced glutathione (GSH) content, VB-48 vitality assay; format: cell-based, human; settings: G-361, 24 h, compound at IC50 concentration, representative histogram; quadrant not defined in legend
Protocol: Analyses of the levels of cellular thiols were performed using NC 3000 system (Chemometec., Lillerød, Denmark) according to the manufacturer’s protocol for the cell vitality assay. The G-361 cells were seeded in 12-well culture plates at a density of 1 × 10^5 cell/mL and the tested compounds in concentrations corresponding to IC50 value were added when 70–80% of confluence was achieved. The cells were counted, and suspended in 1 mL of culture medium. A representative sample of 190 uL was pipetted into the new Eppendorf tubes and 10 µL of Solution 5 (which contains acridine orange (AO) that stains all nucleated cells; PI which stains dead cells only; and VitaBright-48 TM ([…]) which stains viable cells in an intensity-dependent manner reliant on the level of thiols) was added to the cell suspension. Next, the stained cells were loaded into 8-chamber NC-Slides A8™ (Chemometec., Lillerød, Denmark) and measured using the Vitality (VB-48) Assay protocol in the NC-3000 image cytometer. The experiment was performed three times with three replicates.

[5] = system: melanoma line G-361; assay: Two-step cell cycle analysis (DAPI, image cytometry); format: cell-based, human; settings: G-361, 24 h, IC50 concentration
Protocol: Cell-cycle assays was performed using NC 3000 system (Chemometec., Lillerød, Denmark) according to manufacturer’s protocol for the two-step cell cycle analysis. The G-361 cells were seeded in 12-well plates at a density of 1 × 10^5 cells/well, and the tested compounds with concentration IC50 were added when 70–80% of confluence was achieved. After 24 h of incubation with tested compounds, the cells were washed with PBS and thoroughly resuspended in 250 μL lysis buffer supplemented with 10 μg/mL DAPI. After 5 min incubation at 37 °C, cells were mixed with 250 μL stabilization buffer and loaded into the 8-chamber slide NC-Slide A8 (Chemometec., Lillerød, Denmark). Cellular fluorescence was quantified using a NucleoCounter® NC-3000™ image cytometer (Chemometec., Lillerød, Denmark). The obtained DNA content histograms were used to demarcate different phases of the cell cycle in tested samples. The experiments were performed three times with three replicates.

[6] = system: gastric cancer cell line MKN74; parameters: method as in PMID 22741788; settings: MKN74 gastric cancer cells ref 9; cited from earlier work

SMILES	RMW (chromatographic lipophilicity parameter) [1]	-S TLC (slope of linear equation) [1]	Relative mRNA expression level DHODH (RQ) [2]	Relative mRNA expression level SOD2 (RQ) [3]	GSH content analysis, quadrant Q1ll [4]	GSH content analysis, quadrant Q1lr [4]	GSH content analysis, quadrant Q1ul [4]	GSH content analysis, quadrant Q1ur [4]	effect on cell cycle [5]	effect on cell cycle [6]
CSc1ccc(NC(=S)NNC(=O)COc2ccc(Cl)cc2Cl)cc1 [PK2, 1-(2,4-dichlorophenoxy)acetyl-4-(4-metylothiophenyl)thiosemicarbazide]	3.2058	3.8253	0.463 ± 0.016	1.486 ± 0.056	3%	44%	30%	23%	–	–
O=C(COc1ccc(Cl)cc1Cl)NNC(=S)Nc1ccccc1I [PK6, 1-(2,4-dichlorophenoxy)acetyl-4-(2-iodophenyl)thiosemicarbazide]	2.8125	3.3436	0.824 ± 0.030	1.249 ± 0.080	4%	46%	28%	22%	–	–
O=C(COc1ccc(Cl)cc1Cl)NNC(=S)Nc1cccc2ccccc12 [PK9, 1-(2,4-dichlorophenoxy)acetyl-4-(1-naphtyl)thiosemicarbazide]	3.1398	3.8345	0.375 ± 0.018	1.293 ± 0.100	3%	41%	26%	30%	no cell cycle arrest was observed	inhibited the cell cycle in S and G2 phases
